# pKi: −log10 of the molar value.
# How the values were obtained:
# [1] = target: Carbonic anhydrase 13 (Mus musculus, UniProt Q9D6N1)
# Description: Inhibition of mouse carbonic anhydrase 13 by stopped-flow CO2 hydration assay
# [2] = target: Carbonic anhydrase 9 (Homo sapiens, UniProt Q16790)
# Description: Inhibition of human carbonic anhydrase 9 catalytic domain by stopped-flow CO2 hydration assay
# [3] = target: Carbonic anhydrase 12 (Homo sapiens, UniProt O43570)
# Description: Inhibition of human carbonic anhydrase 12 catalytic domain by stopped-flow CO2 hydration assay
# [4] = target: Carbonic anhydrase 14 (Homo sapiens, UniProt Q9ULX7)
# Description: Inhibition of human carbonic anhydrase 14 by stopped-flow CO2 hydration assay
# [5] = target: Carbonic anhydrase 3 (Homo sapiens, UniProt P07451)
# Description: Inhibition of human carbonic anhydrase 3 by stopped-flow CO2 hydration assay
# [6] = target: Carbonic anhydrase 4 (Homo sapiens, UniProt P22748)
# Description: Inhibition of human carbonic anhydrase 4 by stopped-flow CO2 hydration assay
# [7] = target: Carbonic anhydrase 5A, mitochondrial (Homo sapiens, UniProt P35218)
# Sequence of Carbonic anhydrase 5A, mitochondrial (P35218 whole entry): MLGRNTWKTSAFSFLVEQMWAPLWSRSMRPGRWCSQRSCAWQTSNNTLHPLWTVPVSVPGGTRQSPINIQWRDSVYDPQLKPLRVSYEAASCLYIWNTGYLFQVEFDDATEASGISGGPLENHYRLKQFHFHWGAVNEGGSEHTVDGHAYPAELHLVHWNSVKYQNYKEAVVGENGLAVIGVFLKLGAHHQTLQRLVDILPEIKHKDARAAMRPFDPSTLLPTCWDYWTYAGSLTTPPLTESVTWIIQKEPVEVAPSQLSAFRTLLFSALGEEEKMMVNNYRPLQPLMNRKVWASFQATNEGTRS
# Description: Inhibition of human carbonic anhydrase 5A by stopped-flow CO2 hydration assay
# [8] = target: Carbonic anhydrase 5B, mitochondrial (Homo sapiens, UniProt Q9Y2D0)
# Sequence of Carbonic anhydrase 5B, mitochondrial (Q9Y2D0 whole entry): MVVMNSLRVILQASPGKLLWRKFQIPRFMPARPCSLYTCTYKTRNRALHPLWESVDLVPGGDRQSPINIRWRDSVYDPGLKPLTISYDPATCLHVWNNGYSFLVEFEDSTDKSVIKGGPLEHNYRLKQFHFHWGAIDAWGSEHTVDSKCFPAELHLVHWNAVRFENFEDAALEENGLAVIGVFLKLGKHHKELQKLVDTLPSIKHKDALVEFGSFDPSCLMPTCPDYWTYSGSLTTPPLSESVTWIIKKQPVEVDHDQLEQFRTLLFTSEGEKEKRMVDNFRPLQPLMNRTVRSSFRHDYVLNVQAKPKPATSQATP
# Description: Inhibition of human carbonic anhydrase 5B by stopped-flow CO2 hydration assay
# [9] = target: Carbonic anhydrase 6 (Homo sapiens, UniProt P23280)
# Sequence of Carbonic anhydrase 6 (P23280 whole entry): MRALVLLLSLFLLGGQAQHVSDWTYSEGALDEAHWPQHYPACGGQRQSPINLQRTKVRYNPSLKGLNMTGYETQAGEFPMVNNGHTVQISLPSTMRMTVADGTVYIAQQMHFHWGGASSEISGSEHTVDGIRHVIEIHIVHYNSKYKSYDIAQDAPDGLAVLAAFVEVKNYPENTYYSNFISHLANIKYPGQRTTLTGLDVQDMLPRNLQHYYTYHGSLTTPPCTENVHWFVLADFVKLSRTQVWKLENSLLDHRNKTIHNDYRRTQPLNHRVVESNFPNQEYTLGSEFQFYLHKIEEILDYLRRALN
# Description: Inhibition of human carbonic anhydrase 6 by stopped-flow CO2 hydration assay
# [10] = target: Carbonic anhydrase 7 (Homo sapiens, UniProt P43166)
# Sequence of Carbonic anhydrase 7 (P43166 whole entry): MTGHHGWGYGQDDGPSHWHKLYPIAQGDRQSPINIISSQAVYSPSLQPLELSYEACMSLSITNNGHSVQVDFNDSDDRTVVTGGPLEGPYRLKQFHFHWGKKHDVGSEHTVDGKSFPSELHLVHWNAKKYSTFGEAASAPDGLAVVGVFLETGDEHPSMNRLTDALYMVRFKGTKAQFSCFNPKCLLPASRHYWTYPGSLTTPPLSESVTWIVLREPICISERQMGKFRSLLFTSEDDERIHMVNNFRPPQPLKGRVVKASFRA
# Description: Inhibition of human carbonic anhydrase 7 by stopped-flow CO2 hydration assay
# Sequence of Carbonic anhydrase 12 (O43570 whole entry): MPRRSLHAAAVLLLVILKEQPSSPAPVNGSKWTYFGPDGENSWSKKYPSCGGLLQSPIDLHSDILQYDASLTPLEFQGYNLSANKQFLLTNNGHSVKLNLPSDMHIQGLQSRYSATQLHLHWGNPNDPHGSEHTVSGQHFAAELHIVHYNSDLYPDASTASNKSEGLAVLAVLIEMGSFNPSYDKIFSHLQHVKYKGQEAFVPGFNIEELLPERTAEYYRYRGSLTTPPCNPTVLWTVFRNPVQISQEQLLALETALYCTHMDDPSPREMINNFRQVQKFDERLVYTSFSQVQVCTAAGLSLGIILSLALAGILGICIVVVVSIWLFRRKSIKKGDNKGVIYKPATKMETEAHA
# Sequence of Carbonic anhydrase 13 (Q9D6N1 whole entry): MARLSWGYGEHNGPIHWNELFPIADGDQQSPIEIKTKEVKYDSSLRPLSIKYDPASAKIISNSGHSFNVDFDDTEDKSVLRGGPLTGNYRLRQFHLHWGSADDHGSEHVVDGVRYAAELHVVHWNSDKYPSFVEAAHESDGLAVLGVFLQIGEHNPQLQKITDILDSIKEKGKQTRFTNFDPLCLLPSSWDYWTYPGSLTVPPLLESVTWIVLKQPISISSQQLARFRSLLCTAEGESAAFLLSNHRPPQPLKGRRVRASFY
# Sequence of Carbonic anhydrase 14 (Q9ULX7 whole entry): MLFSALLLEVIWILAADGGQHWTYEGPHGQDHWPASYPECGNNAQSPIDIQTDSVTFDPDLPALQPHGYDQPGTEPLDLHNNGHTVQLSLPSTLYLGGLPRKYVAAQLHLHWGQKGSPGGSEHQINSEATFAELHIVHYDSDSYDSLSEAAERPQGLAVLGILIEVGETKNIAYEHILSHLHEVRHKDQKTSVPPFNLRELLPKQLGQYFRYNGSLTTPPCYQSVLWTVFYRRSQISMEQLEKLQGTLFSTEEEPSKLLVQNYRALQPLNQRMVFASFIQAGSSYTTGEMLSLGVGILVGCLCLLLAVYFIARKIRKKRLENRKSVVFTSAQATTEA
# Sequence of Carbonic anhydrase 4 (P22748 whole entry): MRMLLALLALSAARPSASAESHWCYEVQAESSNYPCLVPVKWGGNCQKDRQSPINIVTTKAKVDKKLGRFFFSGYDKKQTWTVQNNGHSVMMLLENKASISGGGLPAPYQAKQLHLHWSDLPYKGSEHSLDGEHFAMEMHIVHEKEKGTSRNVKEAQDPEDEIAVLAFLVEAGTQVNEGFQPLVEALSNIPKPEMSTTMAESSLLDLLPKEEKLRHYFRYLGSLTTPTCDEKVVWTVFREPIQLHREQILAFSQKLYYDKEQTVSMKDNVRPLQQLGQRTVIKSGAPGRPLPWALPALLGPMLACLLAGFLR
# Sequence of Carbonic anhydrase 3 (P07451 whole entry): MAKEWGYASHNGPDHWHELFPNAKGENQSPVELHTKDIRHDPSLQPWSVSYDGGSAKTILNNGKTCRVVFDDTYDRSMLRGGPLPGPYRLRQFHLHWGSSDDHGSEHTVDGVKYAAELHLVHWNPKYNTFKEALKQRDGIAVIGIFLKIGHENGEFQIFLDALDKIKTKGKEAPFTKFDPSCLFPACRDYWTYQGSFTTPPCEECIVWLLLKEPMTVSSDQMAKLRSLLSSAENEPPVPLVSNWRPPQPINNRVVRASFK
SMILES,pKi [1],pKi [2],pKi [3],pKi [4],pKi [5],pKi [6],pKi [7],pKi [8],pKi [9],pKi [10]
Oc1cc(F)ccc1F,4.16,4.16,3.22,4.47,4.97,3.37,4.92,4.29,4.04,3.26
N#Cc1ccc(O)cc1 [4-CYANOPHENOL],4.35,4.25,–,–,–,3.20,3.28,3.25,–,3.11
CC(=O)Nc1ccc(O)cc1 [ACETAMINOPHEN],4.52,4.15,5.39,4.97,5.15,4.94,3.10,3.53,3.18,–
Oc1ccccc1O [CATECHOL],4.91,3.94,5.05,4.31,4.89,–,4.26,5.38,3.22,3.15
Oc1ccc(O)cc1 [HYDROQUINONE],4.13,4.49,5.11,4.38,5.09,–,4.85,4.90,3.28,3.05
O=C(O)c1ccc(O)cc1 [PARABEN],4.07,3.93,5.32,4.46,3.16,3.09,5.04,–,4.94,3.15
Oc1cccc(O)c1 [RESORCINOL],4.20,4.16,5.12,4.97,3.22,3.24,5.06,5.15,3.26,3.19

# Source: ChEMBL document CHEMBL1155782 (Bioorg Med Chem, 2008)
